According to ChEMBL document CHEMBL1201862, “PubChem BioAssay data set” (2004):
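How tested: cells in 96-well plates exposed to compound for 48 hours at five concentrations. GI50 marks 50% less growth.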 Calls of active or inactive are those of the source. Rule as the data show it: active = GI50 up to about 1.1 µM and inactive = higher.

How the values were obtained:
Experiment in all cases: NCI tumour cell line growth inhibition, 48 h
SK-MEL-2 = system: SK-MEL-2
MCF7 = system: MCF7
SW-620 = system: SW-620
CCRF-CEM = system: CCRF-CEM
SK-MEL-28 = system: SK-MEL-28
ACHN = system: ACHN
UACC-62 = system: UACC-62
LOX IMVI = system: LOX IMVI
K562 = system: K562
SF-539 = system: SF-539
A549 = system: A549
RPMI-8226 = system: RPMI-8226
MDA-MB-231 = system: MDA-MB-231
DU-145 = system: DU-145
HOP-62 = system: HOP-62
SF-268 = system: SF-268
CAKI-1 = system: CAKI-1
UO-31 = system: UO-31
SR = system: SR

Measured: GI50

CCN(CC)C(=S)SC [METHYLDIETHYL CARBAMODITHIOATE]
inactive: SK-MEL-2 > 100 µM | MCF7 > 100 µM | SW-620 > 100 µM | CCRF-CEM > 100 µM | SK-MEL-28 > 100 µM | ACHN > 100 µM | UACC-62 > 100 µM | LOX IMVI > 100 µM | K562 > 100 µM | SF-539 > 100 µM | A549 > 100 µM | RPMI-8226 > 100 µM | MDA-MB-231 > 100 µM | DU-145 > 100 µM | HOP-62 > 100 µM | SF-268 > 100 µM

O=c1/c(=C/c2ccc(-c3ccc(Cl)cc3Cl)o2)sc2n1[C@@H](c1ccc(Cl)cc1)C=C(c1cc(F)c(Cl)cc1Cl)N=2
inactive: SK-MEL-2 40.5 µM | MCF7 33.5 µM | SW-620 33.6 µM | CAKI-1 > 100 µM | SK-MEL-28 > 100 µM | ACHN > 100 µM | UACC-62 25 µM | LOX IMVI 57.9 µM | K562 38.8 µM | SF-539 34.8 µM | A549 > 100 µM | UO-31 41.5 µM | RPMI-8226 31.1 µM | MDA-MB-231 23.6 µM | DU-145 65.2 µM | HOP-62 10.6 µM | SF-268 36.1 µM

COC(=O)[C@H](Cc1ccccc1)NC(=O)[C@H](Cc1ccccc1)NC(=O)[C@@H]1CCCN1C(=O)N[C@H]1C2C=CC(C2)C1C(=O)N1CCC[C@H]1C(=O)N[C@@H](C)C(=O)N[C@H](C(=O)OC)C(C)C (stereo partly specified)
inactive: MCF7 56.9 µM | SW-620 69.3 µM | CCRF-CEM 22.5 µM | SR 49.7 µM | CAKI-1 > 100 µM | SK-MEL-28 > 100 µM | ACHN > 100 µM | UACC-62 92 µM | LOX IMVI 41.3 µM | K562 33.9 µM | A549 > 100 µM | UO-31 > 100 µM | MDA-MB-231 46.5 µM | DU-145 > 100 µM | HOP-62 > 100 µM | SF-268 94.2 µM

CC(C)C(=O)NCC[C@@H](CNC(=O)OC(C)(C)C)NC(=O)OC(C)(C)C
inactive: SK-MEL-2 > 100 µM | MCF7 > 100 µM | SW-620 > 100 µM | CCRF-CEM > 100 µM | SR > 100 µM | CAKI-1 > 100 µM | SK-MEL-28 > 100 µM | ACHN > 100 µM | UACC-62 > 100 µM | K562 > 100 µM | SF-539 > 100 µM | A549 > 100 µM | UO-31 > 100 µM | MDA-MB-231 > 100 µM | DU-145 > 100 µM | HOP-62 > 100 µM | SF-268 > 100 µM
